Laboratory results from US10626112B2, “Heterocyclic sulfonamide derivative and medicine comprising same” (EA PHARMA CO., LTD., priority 2014, dated 2020).

Molecular target: human TRPA1 (Homo sapiens (Human), UniProt O75762)
Test: Measurement of TRPA1 antagonist activity (1): intracellular calcium increase
Assay type: cell-based
Settings: 293T cells transfected with human TRPA1 expression plasmid; allylisothiocyanate 20 μM stimulation; intracellular calcium fluorescence; read-out: hTRPA1 IC50
Method in brief: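 Calcium-flux readout of TRPA1 block: compound given 10 min before 20 μM (final) allylisothiocyanate, fluorescence tracked 5 min. Cells were 293T transiently expressing human TRPA1, dye-loaded 1 hr in HBSS, 20 mM HEPES, pH 7.2. Inhibition scaled between agonist-only and buffer-only responses; IC50 by sigmoid fitting.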

human TRPA1, sequence (O75762 whole entry): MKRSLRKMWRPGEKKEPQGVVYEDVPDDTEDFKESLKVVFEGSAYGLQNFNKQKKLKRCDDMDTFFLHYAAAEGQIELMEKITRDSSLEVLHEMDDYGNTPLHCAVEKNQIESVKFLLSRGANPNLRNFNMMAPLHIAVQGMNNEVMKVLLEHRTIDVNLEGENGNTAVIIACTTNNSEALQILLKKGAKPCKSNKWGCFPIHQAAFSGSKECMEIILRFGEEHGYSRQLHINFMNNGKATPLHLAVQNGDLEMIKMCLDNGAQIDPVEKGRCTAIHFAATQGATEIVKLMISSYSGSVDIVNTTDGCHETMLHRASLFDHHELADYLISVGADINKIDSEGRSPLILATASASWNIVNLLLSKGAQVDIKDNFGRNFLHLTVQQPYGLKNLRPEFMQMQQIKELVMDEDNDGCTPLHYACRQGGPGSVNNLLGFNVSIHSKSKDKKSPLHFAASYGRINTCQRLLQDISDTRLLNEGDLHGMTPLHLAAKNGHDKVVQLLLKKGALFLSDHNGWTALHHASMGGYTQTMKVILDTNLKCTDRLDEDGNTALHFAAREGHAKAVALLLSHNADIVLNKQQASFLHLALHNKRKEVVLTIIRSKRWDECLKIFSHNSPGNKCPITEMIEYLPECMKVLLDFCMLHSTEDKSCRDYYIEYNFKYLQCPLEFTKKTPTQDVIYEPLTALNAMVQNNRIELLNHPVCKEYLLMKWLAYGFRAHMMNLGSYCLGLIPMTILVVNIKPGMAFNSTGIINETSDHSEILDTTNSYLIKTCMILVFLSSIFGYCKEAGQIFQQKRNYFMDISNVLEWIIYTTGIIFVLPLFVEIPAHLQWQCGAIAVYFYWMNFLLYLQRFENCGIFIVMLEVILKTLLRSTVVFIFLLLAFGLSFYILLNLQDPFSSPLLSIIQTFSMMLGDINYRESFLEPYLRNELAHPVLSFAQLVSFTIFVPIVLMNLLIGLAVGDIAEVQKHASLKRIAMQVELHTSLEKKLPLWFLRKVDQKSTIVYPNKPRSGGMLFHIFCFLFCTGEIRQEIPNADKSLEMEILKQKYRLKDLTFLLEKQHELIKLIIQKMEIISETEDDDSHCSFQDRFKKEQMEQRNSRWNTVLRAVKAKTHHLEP

Compound `O=C(NCc1ccc(Oc2ccnc(C(F)(F)F)c2)cc1)[C@@H]1CCCN1S(=O)(=O)c1cc2cc(F)ccc2o1` [Example 56, (2S)-1-(5-fluorobenzofuran-2-yl)sulfonyl-N-[[4-[[2-(trifluoromethyl)-4-pyridyl]oxy]phenyl]methyl]-pyrrolidine-2-carboxamide] has an IC50 of 0.021 µM.
For `O=C(NCc1cccc(-c2ccc(C(F)(F)F)cn2)c1)[C@@H]1CCCN1S(=O)(=O)c1cc2ccccc2o1` [Example 80, (2S)-1-(benzofuran-2-ylsulfonyl)-N-[[3-[5-(trifluoromethyl)-2-pyridyl]phenyl]methyl]pyrrolidine-2-carboxamide], the IC50 was 0.0012 µM.
`O=C(NCc1cccc(Oc2ccc(C(F)(F)F)cc2)c1)[C@@H]1CCCN1S(=O)(=O)c1cc2ccccc2o1` [Example 52, (2S)-1-(benzofuran-2-ylsulfonyl)-N-[[3-[4-(trifluoromethyl)phenoxy]phenyl]-methyl]pyrrolidine-2-carboxamide] gave an IC50 of 0.032 µM.
`O=C(NCc1cc(-c2ccc(C(F)(F)F)cn2)ccn1)[C@@H]1C[C@H]2C[C@H]2N1S(=O)(=O)c1cc2cc(F)ccc2o1` [Example 258, (1R,3S,5R)-4-(5-fluorobenzofuran-2-yl)sulfonyl-N-[[4-[5-(trifluoromethyl)-2-pyridyl]-2-pyridyl]methyl]-4-azabicyclo[3.1.0]hexane-3-carboxamide] was tested, and the IC50 was 0.0019 µM.
Work on `O=C(NCc1cccc(Cl)c1)[C@@H]1CCCN1S(=O)(=O)c1cc2ccccc2o1` [Example 60, (2S)-1-(benzofuran-2-ylsulfonyl)-N-[(3-chlorophenyl)methyl]pyrrolidine-2-carboxamide] yielded an IC50 of 0.2 µM.
Compound `C[C@H](NS(=O)(=O)c1cc2cc(F)ccc2o1)C(=O)NCc1cc(-c2ccc(C(F)(F)F)cc2O)ncn1` [Example 290, (2S)-2-[(5-fluorobenzofuran-2-yl)sulfonylamino]-N-[[6-[2-hydroxy-4-(trifluoromethyl)phenyl]pyrimidin-4-yl]methyl]propanamide] has an IC50 of 0.0057 µM.
`COC(=O)C(Oc1cccc(CNC(=O)[C@@H]2CCCN2S(=O)(=O)c2cc3cc(F)ccc3o2)c1)c1ccccc1` (stereo partly drawn) [Example 29, methyl 2-[3-[[[(2S)-1-(5-fluorobenzofuran-2-yl)sulfonylpyrrolinidine-2-carbonyl]amino]methyl]-phenoxy]-2-phenylacetate] was tested, and the IC50 was 0.34 µM.
For `C[C@H](NS(=O)(=O)c1cc2cc(F)ccc2o1)C(=O)NCc1ccnc(-c2ccc(C(F)(F)F)cn2)c1` [Example 237, (2S)-2-[(5-fluorobenzofuran-2-yl)sulfonylamino]-N-[[2-[5-(trifluoromethyl)-2-pyridyl]-4-pyridyl]methyl]propanamide], the IC50 was 0.27 µM.
In the case of `O=C(NCc1cnnc(-c2ccc(C(F)(F)F)nc2)c1)[C@@H]1CCCN1S(=O)(=O)c1cc2ccccc2o1` [Example 209, (2S)-1-(benzofuran-2-ylsulfonyl)-N-[[6-[6-(trifluoromethyl)-3-pyridyl]pyridazin-4-yl]methyl]pyrrolidine-2-carboxamide], the IC50 is reported as 0.11 µM.
With `N#Cc1ccc(COc2cccc(CNC(=O)[C@@H]3CCCN3S(=O)(=O)c3cc4cc(F)ccc4o3)c2)cc1` [Example 11, (2S)-N-[[3-[(4-cyanophenyl)methoxy]phenyl]methyl]-1-(5-fluorobenzofuran-2-yl)sulfonyl-pyrrolidine-2-carboxamide] the IC50 was 0.001 µM.
With `C[C@H](NS(=O)(=O)c1cc2cc(F)ccc2o1)C(=O)NCc1cccc(-c2ncc(C(F)(F)F)cn2)c1` [Example 232, (2S)-2-[(5-fluorobenzofuran-2-yl)sulfonylamino]-N-[[3-[5-(trifluoromethyl)pyrimidin-2-yl]phenyl]methyl]propanamide] the IC50 was 0.077 µM.
`O=C(NCc1cccc(-c2ccccc2)c1)[C@@H]1CCCN1S(=O)(=O)c1cc2cc(F)ccc2o1` [Example 77, (2S)-1-(5-fluorobenzofuran-2-yl)sulfonyl-N-[(3-phenylphenyl)methyl]pyrrolidine-2-carboxamide] was tested, and the IC50 was 0.015 µM.
`O=C(NCc1cc(-c2ccc(C(F)(F)F)nn2)ccn1)[C@@H]1CCCN1S(=O)(=O)c1cc2ccccc2o1` [Example 202, (2S)-1-(benzofuran-2-ylsulfonyl)-N-[[4-[6-(trifluoromethyl)pyridazin-3-yl]-2-pyridyl]methyl]pyrrolidine-2-carboxamide] gave an IC50 of 0.0043 µM.
With `C[C@H](NS(=O)(=O)c1cc2cc(F)ccc2o1)C(=O)NCc1cccc(-c2ccc(C(F)(F)F)nn2)c1` [Example 235, (2S)-2-[(5-fluorobenzofuran-2-yl)sulfonylamino]-N-[[3-[6-(trifluoromethyl)pyridazin-3-yl]phenyl]methyl]propanamide] the IC50 was 0.02 µM.
In the case of `O=C(NCc1cccc(COc2ccc(C(F)(F)F)cc2)c1)[C@@H]1CCCN1S(=O)(=O)c1cc2ccccc2o1` [Example 298, (2S)-1-(benzofuran-2-ylsulfonyl)-N-[[3-[[4-(trifluoromethyl)phenoxy]methyl]phenyl]methyl]pyrrolidine-2-carboxamide], the IC50 is reported as 0.011 µM.
`CC(C)(C)OC[C@H](NS(=O)(=O)c1cc2cc(F)ccc2o1)C(=O)NCc1cccc(-c2ccc(C(F)(F)F)nc2)c1` [Example 189, (2S)-3-tert-butoxy-2-[(5-fluorobenzofuran-2-yl)sulfonylamino]-N-[[3-[6-trifluoromethyl-3-pyridyl]phenyl]methyl]propanamide] gave an IC50 of 0.84 µM.
Work on `O=C(NCc1ccc(OC(F)(F)F)c(F)c1)[C@@H]1CCCN1S(=O)(=O)c1cc2cc(F)ccc2o1` [Example 69, (2S)-1-(5-fluorobenzofuran-2-yl)sulfonyl-N-[[3-fluoro-4-(trifluoromethoxy)phenyl]methyl]-pyrrolidine-2-carboxamide] yielded an IC50 of 0.012 µM.
Compound `O=C(NCc1cccc(-c2ccc(C(F)(F)F)nn2)c1)[C@@H]1CCCN1S(=O)(=O)c1cc2ccccc2o1` [Example 197, (2S)-1-(benzofuran-2-ylsulfonyl)-N-[[3-[6-(trifluoromethyl)pyridazin-3-yl]phenyl]methyl]-pyrrolidine-2-carboxamide] has an IC50 of 0.003 µM.
`N#Cc1ccc(-c2ccc(CNC(=O)[C@@H]3CCCN3S(=O)(=O)c3cc4ccccc4o3)cc2)cc1` [Example 170, (2S)-1-(benzofuran-2-ylsulfonyl)-N-[[4-(4-cyanophenyl)phenyl]methyl]-pyrrolidine-2-carboxamide] was tested, and the IC50 was 0.23 µM.
Work on `O=C(NCc1cc(-c2ccc(C(F)(F)F)cc2O)ncn1)[C@@H]1CCCN1S(=O)(=O)c1cc2cc(F)ccc2o1` [Example 289, (2S)-1-(5-fluorobenzofuran-2-yl)sulfonyl-N-[[6-[2-hydroxy-4-(trifluoromethyl)phenyl]pyrimidin-4-yl]methyl]pyrrolidine-2-carboxamide] yielded an IC50 of 0.0014 µM.
`O=C(NCc1cccc(OCc2ccc(C(F)(F)F)cn2)c1)[C@@H]1CCCN1S(=O)(=O)c1cc2ccccc2o1` [Example 291, (2S)-1-(benzofuran-2-ylsulfonyl)-N-[[3-[[5-(trifluoromethyl)-2-pyridyl]methoxy]phenyl]methyl]pyrrolidine-2-carboxamide] gave an IC50 of 0.028 µM.
`C[C@H](NS(=O)(=O)c1cc2cc(F)ccc2o1)C(=O)NCc1cccc(-c2ccc(C(F)(F)F)cn2)c1` [Example 107, (2S)-2-[(5-fluorobenzofuran-2-yl)sulfonylamino]-N-[[3-[5-(trifluoromethyl)-2-pyridyl]phenyl]methyl]propanamide] was tested, and the IC50 was 0.0069 µM.
In the case of `O=C(NCc1cc(-c2ccc(C(F)(F)F)nc2)cnn1)[C@@H]1CCCN1S(=O)(=O)c1cc2ccccc2o1` [Example 211, (2S)-1-(benzofuran-2-ylsulfonyl)-N-[[5-[6-(trifluoromethyl)-3-pyridyl]pyridazin-3-yl]methyl]pyrrolidine-2-carboxamide], the IC50 is reported as 0.072 µM.
`O=C(NCc1ccnc(-c2ccc(Cl)cc2)c1)[C@@H]1CCCN1S(=O)(=O)c1cc2ccccc2o1` [Example 198, (2S)-1-(benzofuran-2-ylsulfonyl)-N-[[2-(4-chlorophenyl)-4-pyridyl]methyl]pyrrolidine-2-carboxamide] was tested, and the IC50 was 0.013 µM.
For `O=C(NCc1ccc(-c2cccc(C(F)(F)F)c2)cc1)[C@@H]1CCCN1S(=O)(=O)c1cc2ccccc2o1` [Example 166, (2S)-1-(benzofuran-2-ylsulfonyl)-N-[[4-[3-(trifluoromethyl)phenyl]-phenyl]methyl]pyrrolidine-2-carboxamide], the IC50 was 0.26 µM.
Compound `O=C(NCc1ccnc(NCc2ccc(C(F)(F)F)cc2)c1)[C@@H]1CCCN1S(=O)(=O)c1cc2ccccc2o1` [Example 186, (2S)-1-(benzofuran-2-ylsulfonyl)-N-[[2-[[4-(trifluoromethyl)phenyl]methylamino]-4-pyridyl]methyl]pyrrolidine-2-carboxamide] has an IC50 of 0.086 µM.
`CN(C)c1cccc(COc2cccc(CNC(=O)[C@@H]3CCCN3S(=O)(=O)c3cc4cc(F)ccc4o3)c2)n1` [Example 26, (2S)-N-[[3-[[6-(dimethylamino)-2-pyridyl]methoxy]phenyl]-methyl]-1-(5-fluorobenzofuran-2-yl)sulfonyl-pyrrolidine-2-carboxamide] showed an IC50 of 0.023 µM.
With `O=C(NCc1cc(-c2ccc(C(F)(F)F)cn2)ccn1)[C@@H]1CCN1S(=O)(=O)c1cc2cc(F)ccc2o1` [Example 230, (2S)-1-(5-fluorobenzofuran-2-yl)sulfonyl-N-[[4-[5-(trifluoromethyl)-2-pyridyl]-2-pyridyl]methyl]azetidine-2-carboxamide] the IC50 was 0.0044 µM.
In the case of `O=C(NCc1ccc(Oc2cccc(C(F)(F)F)c2)cc1)[C@@H]1CCCN1S(=O)(=O)c1cc2cc(F)ccc2o1` [Example 51, (2S)-1-(5-fluorobenzofuran-2-yl)sulfonyl-N-[[4-[3-(trifluoromethyl)phenoxy]phenyl]-methyl]pyrrolidine-2-carboxamide], the IC50 is reported as 0.019 µM.
In the case of `C[C@H](NS(=O)(=O)c1cc2cc(F)ccc2o1)C(=O)NCc1cccc(-c2cnc(C(F)(F)F)nc2)c1` [Example 233, (2S)-2-[(5-fluorobenzofuran-2-yl)sulfonylamino]-N-[[3-[2-(trifluoromethyl)pyrimidin-5-yl]phenyl]methyl]propanamide], the IC50 is reported as 0.01 µM.
